# Tests used:
# [1] = Solubility (physicochemical properties); details: for Solubility in methanol, dimethyl sulfoxide (DMSO), and chloroform: organic solvents
# Phoma sp. = assay: Antimicrobial activity against eukaryotic microorganisms, 96-well microplate (MIC); assay type: cell-based; details: YPD medium, 30° C., 30 hours
# Procedure: (§1) The activity against eukaryotic microorganisms was measured with a 96-well microplate in the following manner. Compound (I-1), (I0-B), (I0-C), (I0-D), or (I-2) was suspended in 8% methanol water to prepare a sample suspension having a concentration of 4000, 2000, 1000, 500, 250, 125, 62.5, 32, 16, 8, or 4 μg/mL. Pyceze was diluted with water to prepare Pyceze aqueous solutions having the above concentrations. 50 μl of each of the sample solutions having the above concentrations, 50 μl of sterilized 4-fold concentrated liquid medium, and 100 μl of spore suspension or bacterial suspension of the test organisms prepared beforehand were poured in each well of the 96-well microplate. The experiments were performed in duplicate. […] The test organisms and the culture conditions were as follows.
# Phoma sp.: YPD medium (yeast extract: 1%, peptone: 2%, glucose: 2%, pH: 6.5), 30° C., 30 hours; and […]
# Bacillus subtilis = assay: Activity against prokaryotic microorganisms, paper disc method on agar plate; assay type: cell-based; details: LB agar, 37° C. overnight, concentration of sample solution
# Procedure: (§2) The activity against prokaryotic microorganisms was measured by the paper disc method on an agar plate medium into which test organisms were kneaded. Staphylococcus aureus, Bacillus subtilis, or Escherichia coli was inoculated in 3 mL of sterilized LB medium (glucose: 0.5%, polypeptone: 1%, yeast extract: 0.5%, NaCl: 0.5%, pH: 7.2) in a test tube, and cultured at 37° C. overnight. The pre-culture solution (1%) was inoculated in a sterilized LB agar medium (agar: 1.5%) to prepare an agar assay plate. Compound (I-1) or (I-2) was dissolved in methanol to prepare a sample solution having a concentration of 1000, 500, 250, 125, 62.5, 32, 16, 8, 4, 2, or 1 μg/mL. The sample solution was infiltrated into a paper disc (ADVANTEC, diameter: 8 mm, thick), followed by air-drying. The paper disc was placed on the agar assay plate, and cultured at 37° C. overnight.
# Escherichia coli = assay: as above; assay type: cell-based; details: LB agar, 37° C. overnight
# Procedure: as §2
# Staphylococcus aureus = assay: as above; assay type: cell-based; details: LB agar, 37° C. overnight, concentration of sample solution
# Procedure: as §2
# Saprolegnia parasitica = assay: Antimicrobial activity against eukaryotic microorganisms, 96-well microplate (MIC); assay type: cell-based; details: GY medium, 18° C., 24 hours
# Procedure: as §1
# Saprolegnia parasitica: GY medium (glucose: 1%, yeast extract: 0.25%, pH: 6.5), 18° C., 24 hours;
# [2] = test system: water flea (Daphnia pulex); assay: Water flea swimming ability inhibitory activity test; assay type: in vivo; details: 24 hours incubation, 20° C.; probit method
# Procedure: The number of water fleas was adjusted so that each 10 mL of aerated water contained 5 fleas. The water fleas were all 24 hours old after birth or younger. The aerated water was prepared by aerating tap water, which had been filtered by a water cleaner, for at least 24 hours. A sample solution obtained by dissolving Compound (I-1) or (I-2) in methanol, or a Pyceze aqueous solution obtained by diluting Pyceze with water, was added to the water flea breeding water under stirring so that the final concentration of the sample or Pyceze became 100, 10, 1, 0.1, or 0.01 μg/mL. After incubation for 24 hours (20° C., 17 μmol photons/m^2/s, Light:Dark=16:8), the number of water fleas swimming in the breeding water was counted. The water fleas were divided into multiple groups, each consisting of 5 fleas. Using 2 groups each, an experiment was performed with the test liquids having the aforementioned different final concentrations. From the obtained results, IC50 values were calculated according to the probit method using SPSS statistical software.
# edible oysters = details: cited from earlier work
# water fleas = details: cited from earlier work
# green algae = details: cited from earlier work
SMILES,"Solubility in methanol, dimethyl sulfoxide (DMSO), and chloroform [1]",Solubility in water [1],MIC with respect to Phoma sp. (Phoma sp.) [µg/mL],minimum inhibitory concentration with respect to Bacillus subtilis (Bacillus subtilis) [µg/mL],inhibition ring formation for Escherichia coli (Escherichia coli),minimum inhibitory concentration with respect to Staphylococcus aureus (Staphylococcus aureus) [µg/mL],minimum inhibitory concentration (MIC) with respect to Saprolegnia parasitica (Saprolegnia parasitica) [µg/mL],50% swimming ability inhibitory concentration with respect to water flea (Daphnia pulex) [2] [µg/mL],EC50 (toxicity) in edible oysters (edible oysters) [µg/mL],EC50 (toxicity) in water fleas (water fleas) [µg/mL],EC50 (toxicity) in green algae (green algae) [µg/mL]
CC1OC(OC2C(O)CC(c3ccc4c(c3O)C(=O)C3=C(C4=O)C4(O)C(=O)CC(C)(OC5C=CC(=O)C(C)O5)CC4(O)C=C3)OC2C)C=CC1=O (centres unmarked) [Compound I0-A],Soluble,Slightly soluble,–,–,–,–,–,–,–,–,–
CC1OC(OC2CCC(OC3C(O)CC(c4ccc5c(c4O)C(=O)C4=C(C5=O)C5(O)C(=O)CC(C)(OC6CCC(=O)C(C)O6)CC5(O)C=C4)OC3C)OC2C)C=CC1=O (centres unmarked) [Compound I0-D],Soluble,Slightly soluble,500,62.5,an inhibition ring was not observed,62.5,1,–,–,–,–
CC1OC(OC2CCC(OC3C(O)CC(c4ccc5c(c4O)C(=O)C4=C(C5=O)C5(O)C(=O)CC(C)(OC6C=CC(=O)C(C)O6)CC5(O)C=C4)OC3C)OC2C)C=CC1=O (centres unmarked) [Compound I0-E],Soluble,Slightly soluble,–,–,–,–,–,–,–,–,–
CC1OC(OC2C(O)CC(c3ccc4c(c3O)C(=O)C3=C(C4=O)C4(O)C(=O)CC(C)(OC5C=CC(=O)C(C)O5)CC4(O)C=C3)OC2C)C=CC1=O (centres unmarked) [Compound I-1],–,–,500,62.5,an inhibition ring was not observed,31.2,0.0039,2.58,–,–,–
CC1OC(OC2CCC(OC3C(O)CC(c4ccc5c(c4O)C(=O)C4=C(C5=O)C5(O)C(=O)CC(C)(OC6C=CC(=O)C(C)O6)CC5(O)C=C4)OC3C)OC2C)C=CC1=O (centres unmarked) [Compound I-2],–,–,500,8.0,an inhibition ring was not observed,16.0,0.0078,4.48,–,–,–
O=[N+]([O-])C(Br)(CO)CO [bronopol],–,–,–,–,–,–,–,–,0.77,1.4,0.0537

# From patent US8980586B2, “Compound and method for producing same” (The Ritsumeikan Trust, priority 2011, dated 2015)
